US20260265242A1, “FABK INHIBITOR COMPOSITIONS” (The Texas A&M University System, priority 2023, published 2026)
≈ marks a conversion by molar mass, not a printed value.

tested on: C. difficile strain R20291; test: MIC determination by broth microdilution; type: cell-based; settings: not given

| Structure (SMILES) | activity against C. difficile in MIC testing (in words) |
| --- | --- |
| O=C(NCc1nc(-c2ccc(Br)cc2)c[nH]1)Nc1nc2ccccc2s1 [Compound 6a] | inactive |

same assay, conditions: Clostridioides difficile, R20291, 24 h, Table 1; BHI broth, 24 h anaerobic, 37° C.; read-out: R20291 MIC

| MIC | Structure (SMILES) |
| --- | --- |
| 1.56 to 3.12 µg/mL (≈ 3.19 to 6.39 µM) | O=C(NCc1nc(-c2ccc(Br)cc2)c[nH]1)Nc1ncc(Sc2ncccn2)s1 [Compound 5b] |
| 3.12 µg/mL (≈ 5.98 µM) | O=C(NCc1nc(-c2ccc(Br)cc2)c[nH]1)Nc1ncc(Sc2ccc(Cl)cn2)s1 [Compound 5e] |
| 1.56 µg/mL (≈ 2.81 µM) | O=C(NCc1nc(-c2ccc(Br)cc2)c[nH]1)Nc1ncc(Sc2ncccc2C(F)(F)F)s1 [Compound 5g] |
| > 50 µg/mL | O=C(NCc1nc(-c2ccc(Br)cc2)c[nH]1)Nc1ncc(Sc2ccc3ccccc3n2)s1 [Compound 5h] |

same assay, conditions: Clostridioides difficile, R20291, 24 h, Table 2; BHI broth, 24 h anaerobic, 37° C.; read-out: R20291 MIC

| MIC | Structure (SMILES) |
| --- | --- |
| 3.12 µg/mL (≈ 6.29 µM) | O=C(NCc1nc(-c2ccc(Br)cc2)c[nH]1)Nc1nc2cc(C(F)(F)F)ccc2s1 [Compound 6c] |
| 50 µg/mL (≈ 98.6 µM) | O=C(NCc1nc(-c2ccc(Br)cc2)c[nH]1)Nc1nc2ccc(Br)cc2s1 [Compound 6g] |
| 12.5 µg/mL (≈ 26.5 µM) | CCOc1ccc2nc(NC(=O)NCc3nc(-c4ccc(Br)cc4)c[nH]3)sc2c1 [Compound 6k] |

same assay, conditions: Clostridioides difficile, R20291, 24 h, read-out: R20291 MIC

| Structure (SMILES) | MIC |
| --- | --- |
| O=C(NCc1nc(-c2ccc(Br)cc2)c[nH]1)Nc1ncc(Sc2ccccc2)s1 [Compound 5c] | 1.56 to 3.12 µg/mL (≈ 3.21 to 6.41 µM) |
| O=C(NCc1nc(-c2ccc(Br)cc2)c[nH]1)Nc1ncc(Sc2ccc(Br)cc2)s1 [Compound 5d] | 25 µg/mL (≈ 44.2 µM) |
| O=C(NCc1nc(-c2ccc(Br)cc2)c[nH]1)Nc1ncc(Sc2nc3ccccc3s2)s1 [Compound 5i] | > 50 µg/mL |
| O=C(NCc1nc(-c2ccc(Br)cc2)c[nH]1)Nc1nc2ccccc2s1 [Compound 6a] | > 50 µg/mL |
| CN[C@H](CC(C)C)C(=O)N[C@H]1C(=O)N[C@@H](CC(N)=O)C(=O)N[C@H]2C(=O)N[C@H]3C(=O)N[C@H](C(=O)N[C@H](C(=O)O)c4cc(O)cc(O)c4-c4cc3ccc4O)[C@H](O)c3ccc(c(Cl)c3)Oc3cc2cc(c3O[C@@H]2O[C@H](CO)[C@@H](O)[C@H](O)[C@H]2O[C@H]2C[C@](C)(N)[C@H](O)[C@H](C)O2)Oc2ccc(cc2Cl)[C@H]1O [Vancomycin, reference compound] | 0.39 to 0.78 µg/mL (≈ 0.269 to 0.538 µM) |

same assay, conditions: Clostridioides difficile, R20291, Table 3; read-out: R20291 MIC

| MIC | Structure (SMILES) |
| --- | --- |
| > 50 µg/mL | O=C(NCc1nc(-c2ccccc2)n[nH]1)Nc1ncc(Sc2ccccn2)s1 [Compound 8a] |
| > 50 µg/mL | O=C(NCc1nc2ccccc2c(=O)[nH]1)Nc1ncc(Sc2ccccn2)s1 [Compound 8c] |

same assay, conditions: Clostridioides difficile, R20291, running text; read-out: MIC (anti-C. difficile activity)

| MIC | Structure (SMILES) |
| --- | --- |
| > 100 µg/mL | CS(=O)(=O)c1ccc2nc(NC(=O)NCc3nc(-c4ccc(Br)cc4)c[nH]3)sc2c1 [Compound 6f] |
| 6.25 µg/mL (≈ 13.5 µM) | O=C(NCc1nc(-c2ccc(Br)cc2)c[nH]1)Nc1nc2ccc(Cl)cc2s1 [Compound 6h] |
| 12.5 µg/mL (≈ 26.9 µM) | O=C(NCc1nc(-c2ccc(Br)cc2)c[nH]1)Nc1nc2c(F)cc(F)cc2s1 [Compound 6j] |
| 12.5 to 25 µg/mL (≈ 24.4 to 48.8 µM) | O=C(NCc1nc(-c2ccc(Br)cc2)c[nH]1)Nc1nc2ccc(OC(F)(F)F)cc2s1 [Compound 6l] |
| 0.39 µg/mL (≈ 0.775 µM) | S=C(NCc1nc(-c2ccc(Br)cc2)c[nH]1)Nc1ncc(Sc2ccccn2)s1 [Compound 7a] |

same assay, conditions: Table 2; BHI broth, 24 h anaerobic, 37° C.

| R20291 MIC | Structure (SMILES) |
| --- | --- |
| 1.56 µg/mL | O=C(NCc1nc(-c2ccc(Br)cc2)c[nH]1)Nc1nc2c(C(F)(F)F)cccc2s1 [Compound 6b] |
| 12.5 µg/mL | O=C(NCc1nc(-c2ccc(Br)cc2)c[nH]1)Nc1nc2c(C(F)(F)F)cccc2s1 [Compound 6e] |

| Structure (SMILES) | R20291 MIC |
| --- | --- |
| CN[C@H](CC(C)C)C(=O)N[C@H]1C(=O)N[C@@H](CC(N)=O)C(=O)N[C@H]2C(=O)N[C@H]3C(=O)N[C@H](C(=O)N[C@H](C(=O)O)c4cc(O)cc(O)c4-c4cc3ccc4O)[C@H](O)c3ccc(c(Cl)c3)Oc3cc2cc(c3O[C@@H]2O[C@H](CO)[C@@H](O)[C@H](O)[C@H]2O[C@H]2C[C@](C)(N)[C@H](O)[C@H](C)O2)Oc2ccc(cc2Cl)[C@H]1O [Vancomycin, reference compound] | 0.39 to 0.78 µg/mL |

same assay, conditions: unit printed as g/mL

| MIC (anti-C. difficile activity) | Structure (SMILES) |
| --- | --- |
| 3.12 µg/mL (≈ 5.98 µM) | O=C(NCc1nc(-c2ccc(Br)cc2)c[nH]1)Nc1ncc(Sc2ccc(Cl)cn2)s1 [Compound 5e] |
| 3.12 µg/mL (≈ 5.62 µM) | O=C(NCc1nc(-c2ccc(Br)cc2)c[nH]1)Nc1ncc(Sc2ccc(C(F)(F)F)cn2)s1 [Compound 5f] |
